Experimental data reported in patent US6632838B1, “Use of bissulfonamides for producing medicines for the treatment of hyperlipidemia” (Aventis Pharma Deutschland GmbH, priority 1999, dated 2003).

What was measured:
[1] = test system: human LDL receptor gene promoter coupled to firefly luciferase reporter gene in Hep-G2 cell line; test: In vitro determination of LDL receptor induction using the luciferase assay; format: cell-based; details: luminescence, DMSO control=100%
Protocol: 1) In Vitro Determination of LDL Receptor Induction Using the Luciferase Assay
LDL-receptor induction is determined using the luciferase assay as follows. A regulatory DNA fragment (4 kb) of the human LDL receptor gene containing the complete promoter region is coupled to the firefly luciferase reporter gene and stably transfixed into a Hep-G2 cell line. Cells from this line were seeded out on collagen-coated 96-well plates in MEM (minimum essential medium). After 24 hours in culture, the test substances, dissolved in DMSO, were added in final concentrations of 10 nM to 10 μM (final DMSO concentration=2%). The substances were incubated for 12-18 hours overnight (4 wells/conc. in each case), then D-luciferin was added as substrate for the luciferase, and the luminescence was measured. The measured luminescence as a percentage of the control (control=100%) incubated only with DMSO indicates the extent of the relative LDL receptor induction (Table 2).
Further details of the method are described in Current Protocols in Molecular Biology, F. M. Ausubel, R. Brent, R. E. Kingston, D. D. Moore, J. G. Seidman, J. A. Smith, and K. Struhl, eds., J. Wiley and Sons Inc., U.S.A.

[2] = test system: hyperlipemic hamsters (plasma lipid level); test: In vivo reduction in LDL cholesterol / plasma lipid level in hyperlipemic hamsters; set-up: species or system Syrian hamster; details: vs placebo-treated control
From the text: In Vivo Determination of Reduction in LDL Cholesterol in the Hamster; Cholesterol-lowering Effect of LDL Receptor Inducers in Hyperlipemic Hamsters
In this animal experiment, the effect of LDL receptor inducers after bolus adiminstration to hamsters on a lipid-rich diet was investigated.
The experimental animals used were male Syrian hamsters (Charles River) with an average body weight of 100 to 120 g at the start of adaption. The animals were divided into groups (n=6) on the basis of the body weight. Severe hyperlipidemia was induced by feeding with a diet supplemented with 15% butter and 3% cholesterol. The treatment started after preliminary feeding for 2 weeks. The test substances were administered orally by gavage once a day over a period of 10 days. The plasma lipid level was analyzed after 10 days.

[3] = 20 mg/kg p.o. once a day for ten days
[4] = 40 mg/kg p.o. once a day for ten days

Compound	LDL receptor induction (% of control) ([1]; 1.5 μM)	LDL receptor induction (% of control) ([1]; 4 μM)	LDL receptor induction (% of control) ([1]; 0.15 μM) [%]	other results
CN1CCN(c2cc(NCc3ccccc3)c(S(=O)(=O)NC3CCCCC3)cc2S(=O)(=O)NC2CCCCC2)CC1 [Example 2]	155%	227%	–	–
CN1CCN(c2cc(N3CCN(C)CC3)c(S(=O)(=O)N(C)Cc3ccccc3)cc2S(=O)(=O)N(C)Cc2ccccc2)CC1 [Example 3]	414%	–	184	–
CN1CCN(c2cc(NCc3ccccc3)c(S(=O)(=O)N3CCCC3)cc2S(=O)(=O)N2CCCC2)CC1 [Example 5]	–	240% (4 μM)	–	–
CN1CCN(c2cc(N3CCN(C)CC3)c(S(=O)(=O)N3CCCCC3)cc2S(=O)(=O)N2CCCCC2)CC1 [Example 8]	–	190% (4 μM)	–	–
CN1CCN(c2cc(NCc3ccccc3)c(S(=O)(=O)N(C)c3ccccc3)cc2S(=O)(=O)N(C)c2ccccc2)CC1 [Example 9]	402%	–	244	–
CN1CCN(c2cc(NCc3ccccn3)c(S(=O)(=O)N(C)c3ccccc3)cc2S(=O)(=O)N(C)c2ccccc2)CC1 [Example 10]	–	270%	144	–
CC(C)CNS(=O)(=O)c1cc(S(=O)(=O)NCC(C)C)c(N2CCN(C)CC2)cc1NCc1ccccc1 [Example 12]	244% (1.5 μM)	–	–	–
CN1CCN(c2cc(NCCCc3ccccc3)c(S(=O)(=O)N3CCOCC3)cc2S(=O)(=O)N2CCOCC2)CC1 [Example 15]	243%	–	137	–
CCN(CC)S(=O)(=O)c1cc(S(=O)(=O)N(CC)CC)c(N2CCN(C)CC2)cc1NCc1ccccc1 [Example 16]	214% (1.5 μM)	–	–	–
CN1CCN(c2cc(NCCCc3ccccc3)c(S(=O)(=O)N(C)c3ccccc3)cc2S(=O)(=O)N(C)c2ccccc2)CC1 [Example 25]	189%	–	168	–
CN1CCN(c2cc(NCCCc3ccccc3)c(S(=O)(=O)N3CCCC3)cc2S(=O)(=O)N2CCCC2)CC1 [Example 26]	206%	–	146	–
CN(c1ccccc1)S(=O)(=O)c1cc(S(=O)(=O)N(C)c2ccccc2)c(N2CCNCC2)cc1NCc1ccccn1 [Example 46]	223%	–	152	–
CCN(CCN(C)C)S(=O)(=O)c1cc(S(=O)(=O)N(CC)CCN(C)C)c(N2CCN(C)CC2)cc1N(C)Cc1ccccc1 [Example 61]	–	190% (4 μM)	–	–
CCN(CCN(C)C)c1cc(N2CCN(c3ccccc3)CC2)c(S(=O)(=O)N2CCCCC2)cc1S(=O)(=O)N1CCCCC1 [Example 64, N-Ethyl-N′,N′-dimethyl-N-[5-(4-phenyl-piperazin-1-yl)-2,4-bis-(piperidine-1-sulfonyl)-phenyl]ethane-1,2-diamine]	–	–	–	melting point: 116 to 118 °C
CCN(CCN(C)C)c1cc(NC2CCN(Cc3ccccc3)CC2)c(S(=O)(=O)N2CCCCC2)cc1S(=O)(=O)N1CCCCC1 [Example 65]	292%	314%	177	–
CCN(CCN(C)C)c1cc(NCCCCc2ccccc2)c(S(=O)(=O)N2CCCCC2)cc1S(=O)(=O)N1CCCCC1 [Example 70]	–	238%	194	–
O=S(=O)(c1cc(S(=O)(=O)N2CCCCC2)c(NCc2cccc(Cl)c2)cc1NCCN1CCCC1)N1CCCCC1 [Example 84]	199%	223%	–	–
CCN(CCN(C)C)c1cc(NCCc2ccc(OC)c(OC)c2)c(S(=O)(=O)NCCc2cccs2)cc1S(=O)(=O)NCCc1cccs1 [Example 92]	213%	233%	–	–
CCN(CCN(C)C)c1cc(N2CCC(c3ccccc3)CC2)c(S(=O)(=O)NCCc2cccs2)cc1S(=O)(=O)NCCc1cccs1 [Example 93]	293%	337%	213	–
CCN(CCN(C)C)c1cc(N2CCN(c3ccccc3)CC2)c(S(=O)(=O)NCCc2cccs2)cc1S(=O)(=O)NCCc1cccs1 [Example 94]	194%	321%	–	–
O=S(=O)(NCCc1cccs1)c1cc(S(=O)(=O)NCCc2cccs2)c(NCc2cccc3ccccc23)cc1NCCN1CCCC1 [Example 95]	267%	301%	198	Relative change in the plasma lipid level: LDL cholesterol [2, 3]: −44%; Relative change in the plasma lipid level: Total cholesterol [2, 3]: −45%; Relative change in the plasma lipid level: Triglycerides [2, 3]: −61%; Relative change in the plasma lipid level: LDL cholesterol [2, 4]: −49%; Relative change in the plasma lipid level: Total cholesterol [2, 4]: −50%; Relative change in the plasma lipid level: Triglycerides [2, 4]: −73%
CCN(CCN(C)C)c1cc(N2CCN(c3ccccc3)CC2)c(S(=O)(=O)NCCCOC)cc1S(=O)(=O)NCCCOC [Example 96]	278%	326%	138	–
CN(C)CCNc1cc(NCc2ccc(Cl)c(Cl)c2)c(S(=O)(=O)N2CCCCC2)cc1S(=O)(=O)N1CCCCC1 [Example 98]	249%	285%	–	Relative change in the plasma lipid level: LDL cholesterol [2, 3]: −26%; Relative change in the plasma lipid level: Total cholesterol [2, 3]: −23%; Relative change in the plasma lipid level: Triglycerides [2, 3]: −27%; Relative change in the plasma lipid level: LDL cholesterol [2, 4]: −44%; Relative change in the plasma lipid level: Total cholesterol [2, 4]: −46%; Relative change in the plasma lipid level: Triglycerides [2, 4]: −68%
CN(C)CCNc1cc(NCc2cccc(Cl)c2)c(S(=O)(=O)N2CCCCC2)cc1S(=O)(=O)N1CCCCC1 [Example 99]	247%	322%	–	–
COCCCNS(=O)(=O)c1cc(S(=O)(=O)NCCCOC)c(N2CCN(c3ccccc3)CC2)cc1NCCN1CCCC1 [Example 102]	239%	298%	–	–
CN1CCN(c2cc(N3CC=C(c4ccccc4)CC3)c(S(=O)(=O)N(C)c3ccccc3)cc2S(=O)(=O)N(C)c2ccccc2)CC1 [Example 108]	191%	249%	–	–
